Test results: US9771351B2, “Wnt signaling inhibitor” (KYOWA HAKKO KIRIN CO., LTD., priority 2013, dated 2017)
Where two headings read alike, the source gives them in different places.

How the values were obtained:
[1] = molecular target: T1, tankyrase-2 (Homo sapiens, UniProt Q9H2K2); assay: Tankyrase-2 enzyme inhibition test (Tankyrase-2 Chemiluminescent Assay Kit); format: biochemical; conditions: autoribosylation of GST-tankyrase-2 fusion protein, chemiluminescence
T1 construct: purchased BPS Bioscience, Inc. 80566
T1 sequence (Q9H2K2 1-1166): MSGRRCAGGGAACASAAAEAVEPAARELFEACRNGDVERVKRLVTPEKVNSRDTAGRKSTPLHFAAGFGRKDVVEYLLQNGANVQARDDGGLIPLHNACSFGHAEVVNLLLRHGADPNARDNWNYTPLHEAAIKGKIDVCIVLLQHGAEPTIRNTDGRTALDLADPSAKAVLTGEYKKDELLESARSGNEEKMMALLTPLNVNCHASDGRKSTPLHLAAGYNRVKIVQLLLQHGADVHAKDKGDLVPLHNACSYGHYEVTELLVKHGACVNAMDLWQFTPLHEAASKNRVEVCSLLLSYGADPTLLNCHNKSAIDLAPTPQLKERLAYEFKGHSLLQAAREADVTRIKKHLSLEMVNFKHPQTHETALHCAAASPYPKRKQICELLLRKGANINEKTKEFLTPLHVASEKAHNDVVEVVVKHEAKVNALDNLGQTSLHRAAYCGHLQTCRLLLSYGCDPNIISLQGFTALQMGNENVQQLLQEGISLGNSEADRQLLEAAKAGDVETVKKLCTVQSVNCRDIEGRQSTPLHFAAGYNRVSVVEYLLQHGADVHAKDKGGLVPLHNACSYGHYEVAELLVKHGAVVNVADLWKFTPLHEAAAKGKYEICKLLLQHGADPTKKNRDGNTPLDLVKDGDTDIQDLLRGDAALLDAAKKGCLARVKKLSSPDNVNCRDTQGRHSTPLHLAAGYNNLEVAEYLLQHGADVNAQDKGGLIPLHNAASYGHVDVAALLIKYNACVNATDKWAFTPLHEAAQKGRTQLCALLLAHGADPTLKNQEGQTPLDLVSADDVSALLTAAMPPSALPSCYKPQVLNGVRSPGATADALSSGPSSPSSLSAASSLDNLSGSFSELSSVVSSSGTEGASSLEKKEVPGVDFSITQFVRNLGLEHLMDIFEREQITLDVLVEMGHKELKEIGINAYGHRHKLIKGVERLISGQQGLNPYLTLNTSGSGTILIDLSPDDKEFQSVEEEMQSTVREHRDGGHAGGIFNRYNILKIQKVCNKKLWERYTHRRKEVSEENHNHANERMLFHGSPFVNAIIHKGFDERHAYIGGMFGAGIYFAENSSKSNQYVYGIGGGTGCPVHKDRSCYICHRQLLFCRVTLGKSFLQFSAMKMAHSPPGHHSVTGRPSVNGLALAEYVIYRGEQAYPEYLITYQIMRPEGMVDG
Procedure: Test Example 2: Tankyrase-2 Enzyme Inhibition Test
The enzyme activity of tankyrase-2 was evaluated using Tankyrase-2 Chemiluminescent Assay Kit (BPS Bioscience, Inc., Catalog No. 80566). The Tankyrase-2 Chemiluminescent Assay Kit is a kit for evaluating the enzyme activity of tankyrase-2 using autoribosylation of glutathione-S-transferase (GST)-tankyrase-2 fusion protein as an index. All the experimental materials except for PBS (PBST) buffer containing phosphate-buffered saline (PBS) and 0.05% Tween 20 are all included in the kit. The GST-tankyrase-2 enzyme diluted with 50 μL of 1× tankyrase buffer was added to the wells of a 96-well plate coated with glutathione. After the plate was left to stand overnight at 4° C., the plate was washed 3 times with the PBST buffer. 150 μL of blocking buffer was added thereto, and the plate was left to stand at room temperature for 30 minutes to block the wells. The plate was washed 3 times with the PBST buffer. Before the ribosylation reaction, an assay mixture containing a biotinylated substrate and a test compound diluted with 1× tankyrase buffer were mixed, whereby a reaction mixture was prepared. In order to start the ribosylation reaction, 50 μL of the reaction mixture was added to the wells. In a blank well, 1× tankyrase buffer was added in place of the reaction mixture containing a biotinylated substrate. The plate was left to stand at 30° C. for 1 hour. After the reaction, the plate was washed 3 times with the PBST buffer. Streptavidin-horseradish peroxidase (HRP) was diluted to 50-fold with the blocking buffer. The diluted streptavidin-HRP was added to the wells, and the plate was left to stand at room temperature for 30 minutes. The plate was washed 3 times with the PBST buffer. Immediately before use, 50 μL of the HRP chemiluminescent substrate A and 50 μL of the HRP chemiluminescent substrate B were mixed and 100 μL of the resulting mixture was added to the wells. The chemiluminescence was measured using a chemiluminescence measuring apparatus. The inhibition ratio was obtained according to the following formula 2. [Math. 2] Inhibition ratio (%)=100−{(chemiluminescence intensity when test compound was added)−(chemiluminescence intensity of blank)}/{(chemiluminescence intensity of control)−(chemiluminescence intensity of blank)}×100 Formula 2

[2] = tested on: T-cell factor (TCF)-luciferase reporter using Wnt pathway as index; assay: Inhibitory activity against TCF-luciferase reporter using Wnt pathway as index (DLD-1/TCF-Luc cells); format: cell-based, human; conditions: Homo sapiens, read-out: Inhibition ratio (%) at 1 μmol/L
Procedure: Test Example 1: Inhibitory Activity Against T-Cell Factor (TCF)-Luciferase Reporter Using Wnt Pathway as Index
The inhibitory activity of test compounds against Wnt pathway was evaluated by the following method.
A human colorectal adenocarcinoma cell line DLD-1 (Japanese Collection of Research Bioresources) was cultured in RPMI-1640 medium (Gibco/Life Technologies, Inc.) containing 10% fetal bovine serum (Gibco/Life Technologies, Inc.), 10 mmol/L of a 4-(2-hydroxyethyl)-1-piperazineethanesulfonic acid (HEPES) buffer solution (Gibco/Life Technologies, Inc.), 1 mmol/L of a sodium pyruvate solution (Gibco/Life Technologies, Inc.), 4.5 g/L of a D-(+)-glucose solution (Sigma-Aldrich, Inc.), 100 units/mL penicillin (Gibco/Life Technologies, Inc.) and 100 μg/mL of streptomycin (Gibco/Life Technologies, Inc.) under the conditions of 37° C. and 5% carbon dioxide gas. The DLD-1 cells were seeded in a 10 cm dish, and 20 μg of a luciferase gene plasmid pGL4.27 having a TCF responsive sequence inserted therein was transfected into the cells using 10 μL of Attractene (Qiagen, Inc.) according to the protocol attached to the product. A stably expressing cell line (DLD-1/TCF-Luc) was selected using […] of hygromycin B (Wako Pure Chemical Industries Ltd.). The DLD-1/TCF-Luc cells were detached with trypsin and seeded in a 384-well plate, and a test compound was added at different concentrations. After 18 hours, the luciferase activity was measured using Steady-Glo™ Luciferase Assay System (Promega, Inc.).
The inhibition ratio was obtained according to the following formula 1. The inhibition ratio (%) of the compound of the present invention at 1 μmol/L against the TCF-luciferase reporter using the Wnt pathway as an index is shown in Table 6. [Math. 1] Inhibition ratio (%)=100−{(luciferase activity when test compound was added)−(luciferase activity of blank)}/{(luciferase activity of control)−(luciferase activity of blank)}×100 Formula 1

[3] = 1 μmol/L, DLD-1/TCF-Luc cells, luciferase activity after 18 hours

| Inhibition ratio (%) at 1 μmol/L [1] [%] | SMILES | inhibition at 1 µM [2, 3] [%] | inhibition at 1 µM ([2]; DLD-1, 18 h) [%] |
| --- | --- | --- | --- |
| 91 | COc1cc2ncnc(N3CCC(CN4Cc5ccccc5N(Cc5ccccc5C(N)=O)C4=O)CC3)c2cc1OC [Compound 1, 2-[(3-{[1-(6,7-Dimethoxyquinazolin-4-yl)piperidin-4-yl]methyl}-2-oxo-3,4-dihydroquinazolin-1(2H)-yl)methyl]benzamide] | 88 |  |
| 91 | COc1cc2ncnc(N3CCC(CN4Cc5ccccc5N(CC5CCCO5)C4=O)CC3)c2cc1OC (stereo not shown) [Compound 2, 3-{[1-(6,7-Dimethoxyquinazolin-4-yl)piperidin-4-yl]methyl}-1-[(tetrahydrofuran-2-yl)methyl]-3,4-dihydroquinazolin-2(1H)-one] | 87 |  |
| 94 | COc1cc2ncnc(N3CCC(CN4Cc5cc(S(C)(=O)=O)ccc5N(Cc5ccccc5C#N)C4=O)CC3)c2cc1OC [Compound 5, 2-[(3-{[1-(6,7-Dimethoxyquinazolin-4-yl)piperidin-4-yl]methyl}-6-(methylsulfonyl)-2-oxo-3,4-dihydroquinazolin-1(2H)-yl)methyl]benzonitrile] | 84 |  |
| 95 | COc1cc2ncnc(N3CCC(CN4Cc5ccccc5N(c5ccc(F)c(C#N)c5)C4=O)CC3)c2cc1OC [Compound 7, 5-(3-{[1-(6,7-Dimethoxyquinazolin-4-yl)piperidin-4-yl]methyl}-2-oxo-3,4-dihydroquinazolin-1(2H)-yl)-2-fluorobenzonitrile] | 76 |  |
| 88 | COc1cc2ncnc(N3CCC(CN4Cc5ccccc5N(c5c[nH]c(=O)c(C#N)c5)C4=O)CC3)c2cc1OC [Compound 12, 5-(3-{[1-(6,7-Dimethoxyquinazolin-4-yl)piperidin-4-yl]methyl}-2-oxo-3,4-dihydroquinazolin-1(2H)-yl)-2-oxo-1,2-dihydropyridine-3-carbonitrile] | 80 |  |
| 89 | COc1cc2ncnc(N3CCC(CN4Cc5ccccc5N(c5cccc(S(N)(=O)=O)c5)C4=O)CC3)c2cc1OC [Compound 13, 3-(3-{[1-(6,7-Dimethoxyquinazolin-4-yl)piperidin-4-yl]methyl}-2-oxo-3,4-dihydroquinazolin-1(2H)-yl)benzenesulfonamide] | 80 |  |
| 92 | COc1cc2ncnc(N3CCC(CN4Cc5ccccc5N(c5ccc(C(=O)O)c(C#N)c5)C4=O)CC3)c2cc1OC [Compound 15, 2-Cyano-4-(3-{[1-(6,7-dimethoxyquinazolin-4-yl)piperidin-4-yl]methyl}-2-oxo-3,4-dihydroquinazolin-1(2H)-yl)benzoic acid] | 84 |  |
| 71 | COc1cc2ncnc(N3CCC(CN4Cc5ccccc5N(C5CCOCC5)C4=O)CC3)c2cc1OC [Compound 16, 3-{[1-(6,7-Dimethoxyquinazolin-4-yl)piperidin-4-yl]methyl}-1-(tetrahydro-2H-pyran-4-yl)-3,4-dihydroquinazolin-2(1H)-one] | 63 |  |
| 79 | COc1cc2ncnc(N3CCC(O)(CN4Cc5ccccc5N(c5ccnc(C#N)c5)C4=O)CC3)c2cc1OC [Compound 18, 4-(3-{[1-(6,7-Dimethoxyquinazolin-4-yl)-4-hydroxypiperidin-4-yl]methyl}-2-oxo-3,4-dihydroquinazolin-1(2H)-yl)picolinonitrile] | 80 |  |
| 93 | COc1cc2ncnc(N3CCC(CN4Cc5ccncc5N(c5ccnc(C#N)c5)C4=O)CC3)c2cc1OC [Compound 21, 4-(3-{[1-(6,7-Dimethoxyquinazolin-4-yl)piperidin-4-yl]methyl}-2-oxo-3,4-dihydropyrido[3,4-d]pyrimidin-1(2H)-yl)picolinonitrile] | 76 |  |
| 98 | COc1cc2ncnc(N3CCC(CN4Cc5cccnc5N(c5ccnc(C#N)c5)C4=O)CC3)c2cc1OC [Compound 22, 4-(3-{[1-(6,7-Dimethoxyquinazolin-4-yl)piperidin-4-yl]methyl}-2-oxo-3,4-dihydropyrido[2,3-d]pyrimidin-1(2H)-yl)picolinonitrile] | 75 |  |
| 92 | COc1cc2ncnc(N3CCC(CN4Cc5nccnc5N(c5ccnc(C#N)c5)C4=O)CC3)c2cc1OC [Compound 24, 4-(3-{[1-(6,7-Dimethoxyquinazolin-4-yl)piperidin-4-yl]methyl}-2-oxo-3,4-dihydropteridin-1(2H)-yl)picolinonitrile] | 86 |  |

| SMILES | Inhibition ratio (%) at 1 μmol/L [1] [%] | inhibition at 1 µM [2, 3] [%] | inhibition at 1 µM ([2]; DLD-1, 18 h) [%] |
| --- | --- | --- | --- |
| COc1cc2ncnc(N3CCC(CN4Cc5ccccc5N(c5cccc([N+](=O)[O-])c5)C4=O)CC3)c2cc1OC [Compound 8, 3-{[1-(6,7-Dimethoxyquinazolin-4-yl)piperidin-4-yl]methyl}-1-(3-nitrophenyl)-3,4-dihydroquinazolin-2(1H)-one] | 90 |  | 73 |
| COc1cc2ncnc(N3CCC(CN4Cc5ccccc5N(c5ccnc(C#N)c5)C4=O)CC3)c2cc1OC [Compound 9, 4-(3-{[1-(6,7-Dimethoxyquinazolin-4-yl)piperidin-4-yl]methyl}-2-oxo-3,4-dihydroquinazolin-1(2H)-yl)picolinonitrile] | 91 |  | 74 |
